Reference: ChEMBL document CHEMBL3351580, “Pyrano-isochromanones as IL-6 inhibitors: synthesis, in vitro and in vivo antiarthritic activity” (J Med Chem, 2014)
The source made the active and inactive calls. The rule behind the calls is not given here.

What was measured:
Mus musculus [1] = test: Antiarthritic activity in DBA/1J mouse collagen-induced arthritis model assessed as reduction in anticollagen antibody IgG1 level at 5 mg/kg, po administered once daily for 49 days starting from onset of disease and measured after 14 days of disease onset by ELISA method; format: functional, organism-based; design: dose 5 mg/kg
Mus musculus [2] = test: Antiarthritic activity in DBA/1J mouse collagen-induced arthritis model assessed as reduction in TNFalpha level at 5 mg/kg, po administered once daily for 49 days starting from onset of disease and measured after 3 to 49 days of disease onset by ELISA method; format: functional, organism-based; design: dose 5 mg/kg
THP-1 [3] = test: Inhibition of LPS-induced IL6 production in human THP1 cells after 24 hrs; format: functional, cell-based; conditions: THP-1, 24 h
Mus musculus [4] = test: Antiarthritic activity in DBA/1J mouse collagen-induced arthritis model assessed as reduction in IL6 level at 5 mg/kg, po administered once daily for 49 days starting from onset of disease and measured after 3 to 49 days of disease onset by ELISA method; format: functional, organism-based; design: dose 5 mg/kg
Mus musculus [5] = test: Antiarthritic activity in DBA/1J mouse collagen-induced arthritis model assessed as reduction in anticollagen antibody IgG1 level at 5 mg/kg, po administered once daily for 49 days starting from onset of disease and measured after 49 days of disease onset by ELISA method; format: functional, organism-based; design: dose 5 mg/kg
Mus musculus [6] = test: Antiarthritic activity in DBA/1J mouse collagen-induced arthritis model assessed as reduction in paw swelling at 5 mg/kg, po administered once daily for 49 days starting from onset of disease; format: functional; conditions: 1176 h
B-cell = test: Inhibition of LPS-induced cell proliferation of B cells (unknown origin) at 10 uM after 72 hrs by MTT assay; format: functional
Mus musculus [7] = test: Antiarthritic activity in DBA/1J mouse collagen-induced arthritis model assessed as reduction in anticollagen antibody IgG2a level at 5 mg/kg, po administered once daily for 49 days starting from onset of disease and measured after 14 days of disease onset by ELISA method; format: functional, organism-based; design: dose 5 mg/kg
[8] = Inhibition of concanavalin A-induced cell proliferation of T cells (unknown origin) at 10 uM after 72 hrs by MTT assay; format: functional
THP-1 [9] = test: Inhibition of LPS-induced TNFalpha production in human THP1 cells after 24 hrs; format: functional, cell-based; conditions: THP-1, 24 h
Mus musculus [10] = test: Antiarthritic activity in DBA/1J mouse collagen-induced arthritis model assessed as reduction in anticollagen antibody IgG2a level at 5 mg/kg, po administered once daily for 49 days starting from onset of disease and measured after 49 days of disease onset by ELISA method; format: functional, organism-based; design: dose 5 mg/kg
Mus musculus [11] = test: Antiarthritic activity in DBA/1J mouse collagen-induced arthritis model assessed as reduction in IL-1beta level at 5 mg/kg, po administered once daily for 49 days starting from onset of disease and measured after 3 to 49 days of disease onset by ELISA method; format: functional, organism-based; design: dose 5 mg/kg

SMILES: C[C@H]1C[C@H]2[C@@H]3CCC4=CC(=O)C=C[C@]4(C)[C@@]3(F)[C@@H](O)C[C@]2(C)[C@@]1(O)C(=O)CO [BETAMETHASONE]
- inhibition (Mus musculus [1]): Active
- inhibition (Mus musculus [2]): Active
- IC50 (THP-1 [3]): 0.022 µM
- inhibition (Mus musculus [4]): Active
- inhibition (Mus musculus [5]): Active
- inhibition in vivo at 5 mg/kg (Mus musculus [6]): 46%
- inhibition at 10 µM (B-cell): 28.1%
- inhibition (Mus musculus [7]): Active
- inhibition at 10 µM [8]: 42.6%
- IC50 (THP-1 [9]): 0.013 µM
- inhibition (Mus musculus [10]): Active
- inhibition (Mus musculus [11]): Active
